Values of other authors as cited in article PMC6499206, “Quantification of Volatile Metabolites Derived From Garlic (Allium sativum) in Human Urine” (Frontiers in Nutrition, 2019).

Test system: cardiac hypertrophy
Parameters: method as in PMID 28194108
Details: rats; by increasing Na+/K+-ATPase; cited from earlier work

Row | Compound | effect on cardiac hypertrophy
1 | C=CCSC [AMS, allyl methyl sulfide] | attenuated cardiac hypertrophy
2 | C=CC[S+](C)[O-] (centres unmarked) [AMSO, allyl methyl sulfoxide] | attenuated cardiac hypertrophy
